Data: patent US7166634B2, “Bis-indole pyrroles useful as antimicrobials agents” (Nereus Pharmaceuticals, Inc., priority 2004, dated 2007)
Where “and” joins values, the source holds several entries; their conditions need not be identical. Identical values can stand only once.

Assays:
Assay in all cases: MIC, broth microdilution (NCCLS M7-A5)
Type in all cases: cell-based
[1] = test system: S. epidermidis - ATCC 700578; design: Staph Epi 700578 MIC: unit not given here; settings: Table 4; averages of 2 experiments, * single experiment; both values given when differing >2 fold
Description: (§1) Minimum inhibitory concentrations (MICs) are determined according to the National Committee for Clinical Laboratory Standards (NCCLS) susceptibility test guideline M7-A5 (Ferraro, M. 2001 Methods for Dilution Antimicrobial Susceptibility Tests for Bacteria that Grow Aerobically; Approved Standard (NCCLS). National Committee for Clinical Laboratory Standards (NCCLS), Villanova) to quantify the antimicrobial activity of the compounds of the present embodiment against various pathogenic bacteria. Susceptibility testing is performed by broth microdilution in accordance with National Committee for Clinical Laboratory Standards (NCCLS) guidelines. This procedure entails combining the test compounds with a standardized number of cells, incubating at the temperature and amount of time appropriate for each particular organism, and visually scoring the concentration at which no growth was apparent in the test wells. The panel includes both drug sensitive and drug resistant isolates of both gram-positive and gram-negative bacteria, including: S. aureus (both MSSA and MRSA), S. pneumoniae (wild type and penicillin-resistant), vancomycin-sensitive E. faecalis, vancomycin-resistant E. faecium, E. coli, H. influenzae and P. aeruginosa.
(§2) Susceptibility testing was performed by broth microdilution in accordance with National Committee for Clinical Laboratory Standards (NCCLS) guidelines. Antimicrobial data for compounds of Formulae II, III, IV, VI, VII, VIII, IX, XII, XIII, XIV, XV′, XV, XVI, XVII, XVIII, XXI′, XXII, XXIII, XXIV, and XXV are shown in Tables 3, 4 and 5.

[2] = test system: S. epidermidis - ATCC 700582; design: Staph Epi 700582 MIC: unit not given here; settings: Table 4; averages of 2 experiments, * single experiment; both values given when differing >2 fold
Description: as §1, §2

[3] = test system: E. faecium - Van^r (VRE 700221); settings: Table 4; averages of 2 experiments, * single experiment; both values given when differing >2 fold; in µg/mL
Description: as §1, §2

[4] = test system: H. influenzae - ATCC 49247; settings: Table 4 (MIC); averages of 2 experiments, * single experiment; both values given when differing >2 fold
Description: as §1, §2

[5] = test system: H. influenzae - ATCC 49766; settings: Table 4 (MIC); averages of 2 experiments, * single experiment; both values given when differing >2 fold
Description: as §1, §2

[6] = test system: S. aureus - MRSA (43300); settings: Table 4; averages of 2 experiments, * single experiment; both values given when differing >2 fold; in µg/mL
Description: as §1, §2

[7] = test system: S. aureus - MSSA (29213); settings: Table 4; averages of 2 experiments, * single experiment; both values given when differing >2 fold; in µg/mL
Description: as §1, §2

[8] = test system: S. pneumoniae - penicillin resistant (51915); settings: Table 4, averages of 2 experiments, * single experiment, both values given when differing >2 fold
Description: as §1, §2

[9] = test system: S. pneumoniae - penicillin sensitive (49619); settings: Table 4, averages of 2 experiments, * single experiment, both values given when differing >2 fold
Description: as §1, §2

[10] = test system: E. faecalis - Van^s (VSE 29212); design: VSE 29212 MIC: unit not given here; settings: Table 4; averages of 2 experiments, * single experiment; both values given when differing >2 fold
Description: as §1, §2

[11] = test system: E. coli - imp; settings: Table 5
Description: as §1, §2

SMILES	Staph Epi 700578 MIC [1]	Staph Epi 700582 MIC [2]	VRE 700221 MIC [3]	H. inf. 49247 [4]	H. inf. 49766 [5]	MRSA 43300 MIC [6]	MSSA 29213 MIC [7]	S. pneumo 51915 Pen R MIC ([8]; in µg/mL)	S. pneumo 49619 Pen. S MIC ([9]; in µg/mL)	VSE 29212 MIC [10]	E. coli imp MIC [11]	S. pneumo 51915 Pen R MIC [8]	S. pneumo 49619 Pen. S MIC [9]
COC(=O)c1[nH]cc(-c2c[nH]c3cc(Cl)c(Cl)cc23)c1-c1c[nH]c2ncccc12 [XIV]	8*	8*	6	>32*	>32*	6	6	24*	32*	12	–	–	–
COC(=O)c1[nH]c(C(=O)OC)c(-c2c[nH]c3ccc(F)cc23)c1-c1c[nH]c2ccccc12 [XXIII]	>32*	16*	>32*	>32*	>32*	>32*	16*	>32*	>32*	>32*	>32 µg/mL	–	–
COC(=O)c1[nH]c(C(=O)OC)c(-c2c[nH]c3ccc(Cl)cc23)c1-c1c[nH]c2ccc(F)cc12 [XX]	8	8	>32	–	>32	5	4	–	32	24	>32 µg/mL	>32, 32	–
COC(=O)c1[nH]cc(-c2c[nH]c3cc(F)c(Cl)cc23)c1-c1c[nH]c2ccc(Cl)cc12 [XVII]	1*	1*	4*	>32*	16*	1*	1*	24*	16*	4*	8 µg/mL	–	–
COC(=O)c1[nH]c(C(=O)OC)c(-c2c[nH]c3ccccc23)c1-c1c[nH]c2ccccc12 [IX]	16	16	>32	>32	>32	>32	>32	>32	–	>32	>32 µg/mL	–	32, >32
COC(=O)c1[nH]cc(-c2c[nH]c3ccc(Br)cc23)c1-c1c[nH]c2ccc(Br)cc12 [XVI]	2.5	2.5	6	>32	16 and > 32	2.5	1.4	24	20	5	>32, 32 ug/mL	–	–
